These results are taken from US20100105724A1, “CRYSTALLINE AND AMORPHOUS FORMS OF PALONOSETRON HYDROCHLORIDE” (HELSINN HEALTHCARE SA, priority 2006, published 2010).

Data set [1] can be described thus: Hygroscopicity measurement (water absorption at constant relative humidity). The note with it: for hygroscopicity: humidities up to 82% RH. The data set is classed as physicochemical. How it is done: Hygroscopicity Measurement—Samples of 20-30 mg of the compound were weighed into small weighing bottles with ground glass tops. The bottles were dried in a 60° C. oven for 30 minutes. The samples were cooled in a dessicator containing anhydrous CaSO4 and then transferred to humidity chambers maintained at constant relative humidities with saturated salt solutions. The samples were weighed at different time intervals until equilibrium was reached. The percent moisture absorbed at a given time was calculated as follows: % Weight Change=((Wt−Wo)/Wo)×100 wherein W1=sample weight at given time after exposure to the indicated relative humidity, and Wo=initial sample weight.

The nature of data set [2]: Physical stability determination of polymorphs and amorphous phase. The data set is classed as physicochemical. How it is done:
Physical Stability Determination—The physical stability of the polymorphs was determined by wetting the powders with water, suspending in ethanol, ethyl acetate, and exposing them to 93% relative humidity (RH) and 26% RH. The DSC thermogram and the x-ray diffraction pattern were obtained after a few days to determine if phase changes had occurred. The physical stability of the amorphous phase was determined by equilibrating a sample at 40° C., 75% RH for two weeks.

Data set [3] deals with other receptors such as dopamine receptors. The settings on record: literature (Wong 1995; Eglen 1995); cited from earlier work.
Data set [4] addresses T1, 5-hydroxyltryptamine 3 receptor precursor (5-HT3 receptor) (Homo sapiens, UniProt P46098).
T1 sequence (P46098 24-478): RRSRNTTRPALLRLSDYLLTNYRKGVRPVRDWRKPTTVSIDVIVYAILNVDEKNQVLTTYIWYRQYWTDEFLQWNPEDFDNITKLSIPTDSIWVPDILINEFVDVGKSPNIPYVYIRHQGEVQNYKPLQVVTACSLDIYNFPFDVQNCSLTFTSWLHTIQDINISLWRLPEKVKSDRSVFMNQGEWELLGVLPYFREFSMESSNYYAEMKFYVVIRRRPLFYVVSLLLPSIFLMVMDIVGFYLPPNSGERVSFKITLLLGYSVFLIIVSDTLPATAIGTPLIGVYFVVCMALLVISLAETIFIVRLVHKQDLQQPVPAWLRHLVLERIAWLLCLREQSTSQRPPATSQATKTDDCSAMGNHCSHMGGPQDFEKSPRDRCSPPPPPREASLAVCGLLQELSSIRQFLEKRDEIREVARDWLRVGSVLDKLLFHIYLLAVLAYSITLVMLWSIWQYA
The note with it: in vitro, literature (Wong 1995; Eglen 1995); cited from earlier work.

SMILES strings stand for the structures.

For the molecule `Cl.O=C1c2cccc3c2[C@H](CCC3)CN1[C@@H]1CN2CCC1CC2` [Palonosetron hydrochloride, (3aS)-2-[(S)-1-Azabicyclo [2.2.2]oct-3-yl]-2,3,3a,4,5,6-hexahydro-1-oxo-1Hbenz[de] isoquinoline hydrochloride], in data set [1] (93% RH, after eight days, hydrochloride), the “physical change on exposure to humidity” value was “liquefies”. In addition, in data set [1] (hydrochloride), the hygroscopicity entry is given as “nonhygroscopic”.
As for `Cl.O=C1c2cccc3c2[C@H](CCC3)CN1[C@@H]1CN2CCC1CC2` [Form I], the Water absorbed was determined as 0.02 weight % in data set [1] (50% relative humidity, 1 day); 0.14 weight % in data set [1] (50% relative humidity, 4 days); 0.05 weight % in data set [1] (50% relative humidity, 8 days); 0.15 weight % in data set [1] (75% relative humidity, 1 day); 0.22 weight % in data set [1] (75% relative humidity, 4 days); 0.22 weight % in data set [1] (75% relative humidity, 8 days). The Water absorbed in data set [1] (82% relative humidity, 1 day) was found to be 0.14 weight %; in data set [1] (82% relative humidity, 4 days), 0.25 weight %; in data set [1] (82% relative humidity, 8 days) it was 0.54 weight %; in data set [1] (93% relative humidity, 1 day), 0.07 weight %; in data set [1] (93% relative humidity, 4 days) it was 0.63 weight %; in data set [1] (93% relative humidity, 8 days), 25.7 weight %. Also, the Water absorbed in data set [1] (humidities up to 82%, after eight days) was 0.5%. The moisture absorbed in data set [1] (93% RH, after eight days) was determined as 26%. The “physical change on exposure to humidity” value in data set [1] (93% RH, after eight days) was “turning into a paste”; in data set [1] (93% RH, two weeks) it was “liquefied”. Also, in data set [1] (93% relative humidity, 8 days), the “physical state of sample” value was “Semi”. Moreover, in data set [1] (93% relative humidity, 15 days), the “Water absorbed (physical state printed)” value is listed as “Liquid”. Besides, the hygroscopicity entry in data set [1] is listed as “not hygroscopic”. For the same molecule, the “physical stability at high humidity” value in data set [2] (93% relative humidity, two weeks, ambient temperature) is “deliquesced”. Moreover, the “physical stability as a suspension” value in data set [2] (suspension in ethanol), in data set [2] (suspension in ethyl acetate) and in data set [2] (suspension in water) was “stable” each time.
`O=C1c2cccc3c2[C@H](CCC3)CN1[C@@H]1CN2CCC1CC2` (single isomer, unassigned) [Palonosetron]: the “affinity for other receptors such as dopamine receptors” value in data set [3] is on record as “low affinity”. The “affinity as an antagonist for the 5-HT3 receptor” value in data set [4] is given as “high affinity”.
For `Cl.O=C1c2cccc3c2[C@H](CCC3)CN1[C@@H]1CN2CCC1CC2` [amorphous form], the “physical stability at low humidity” value in data set [2] (26% RH, two weeks) was “remained amorphous”. The “phase change on equilibration” value in data set [2] (40° C., 75% RH, two weeks) is “converted to Form I”. Moreover, in data set [2] (ambient humidity, subsequent to deliquescence), the “solid form after deliquescence at ambient humidity” value is listed as “re-solidified as Form II”. Besides, in data set [2] (removed from the desiccator, ambient humidity), the “behaviour on exposure to ambient humidity” value is recorded as “deliquesced immediately”.
As for `Cl.O=C1c2cccc3c2[C@H](CCC3)CN1[C@@H]1CN2CCC1CC2` [Form II], the “phase change in suspension” value in data set [2] (suspended in ethanol for one week at ambient temperature (~25° C.)) was “converted to Form I”.
